Test results taken from PubChem BioAssay (NCI).
Values after ≈ are worked out from the molar mass of the structure shown.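 Five concentrations, 48 hours, 96-well plates. The concentration for 50% growth inhibition is given as GI50. TGI marks complete inhibition of growth.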 Active and inactive are the calls of the source. Rule as the data show it: active = GI50 below about 0.43 µM; inactive = the rest.

How the values were obtained:
Assay in all cases: NCI tumour cell line growth inhibition, 48 h
786-0 renal = system: 786-0 renal
A498 renal = system: A498 renal
A549 NSCLC = system: A549 NSCLC
ACHN renal = system: ACHN renal
CAKI-1 renal = system: CAKI-1 renal
CCRF-CEM leukemia = system: CCRF-CEM leukemia
COLO 205 colon = system: COLO 205 colon
DLD-1 colon = system: DLD-1 colon
DMS 114 small cell lung = system: DMS 114 small cell lung
DMS 273 small cell lung = system: DMS 273 small cell lung
EKVX NSCLC = system: EKVX NSCLC
HCC-2998 colon = system: HCC-2998 colon
HCT-116 colon = system: HCT-116 colon
HCT-15 colon = system: HCT-15 colon
HL-60(TB) leukemia = system: HL-60(TB) leukemia
HOP-18 NSCLC = system: HOP-18 NSCLC
HOP-62 NSCLC = system: HOP-62 NSCLC
HOP-92 NSCLC = system: HOP-92 NSCLC
HT29 colon = system: HT29 colon
IGROV1 ovarian = system: IGROV1 ovarian
K-562 leukemia = system: K-562 leukemia
KM12 colon = system: KM12 colon
KM20L2 colon = system: KM20L2 colon
LOX IMVI melanoma = system: LOX IMVI melanoma
LXFL 529 NSCLC = system: LXFL 529 NSCLC
M14 melanoma = system: M14 melanoma
MALME-3M melanoma = system: MALME-3M melanoma
MOLT-4 leukemia = system: MOLT-4 leukemia
NCI-H226 lung = system: NCI-H226 lung
NCI-H23 lung = system: NCI-H23 lung
NCI-H460 lung = system: NCI-H460 lung
NCI-H522 lung = system: NCI-H522 lung
OVCAR-3 ovarian = system: OVCAR-3 ovarian
OVCAR-4 ovarian = system: OVCAR-4 ovarian
OVCAR-5 ovarian = system: OVCAR-5 ovarian
OVCAR-8 ovarian = system: OVCAR-8 ovarian
RPMI-8226 leukemia = system: RPMI-8226 leukemia
RXF-631 renal = system: RXF-631 renal
SF-268 CNS = system: SF-268 CNS
SF-295 CNS = system: SF-295 CNS
SF-539 CNS = system: SF-539 CNS
SK-MEL-2 melanoma = system: SK-MEL-2 melanoma
SK-MEL-28 melanoma = system: SK-MEL-28 melanoma
SK-OV-3 ovarian = system: SK-OV-3 ovarian
SN12C renal = system: SN12C renal
SNB-19 CNS = system: SNB-19 CNS
SNB-78 CNS = system: SNB-78 CNS
SW-620 colon = system: SW-620 colon
TK-10 renal = system: TK-10 renal
U251 CNS = system: U251 CNS
UACC-257 melanoma = system: UACC-257 melanoma
UACC-62 melanoma = system: UACC-62 melanoma
UO-31 renal = system: UO-31 renal
XF 498 CNS = system: XF 498 CNS
M19-MEL melanoma = system: M19-MEL melanoma
MCF7 breast = system: MCF7 breast
NCI/ADR-RES ovarian = system: NCI/ADR-RES ovarian
P388 leukemia = system: P388 leukemia
P388/ADR leukemia = system: P388/ADR leukemia
RXF 393 renal = system: RXF 393 renal
SK-MEL-5 melanoma = system: SK-MEL-5 melanoma
SN12K1 renal = system: SN12K1 renal
SNB-75 CNS = system: SNB-75 CNS

COC(=O)NN1C(C)=C(C(=O)OC)C2(CCOC2=O)C1(C)O (stereo not given)
> 100 µM: TGI (786-0 renal) | TGI (A498 renal) | TGI (A549 NSCLC) | TGI (ACHN renal) | TGI (CAKI-1 renal) | TGI (CCRF-CEM leukemia) | TGI (COLO 205 colon) | TGI (DLD-1 colon) | TGI (DMS 114 small cell lung) | TGI (DMS 273 small cell lung) | TGI (EKVX NSCLC) | TGI (HCC-2998 colon) | TGI (HCT-116 colon) | TGI (HCT-15 colon) | TGI (HL-60(TB) leukemia) | TGI (HOP-18 NSCLC) | TGI (HOP-62 NSCLC) | TGI (HOP-92 NSCLC) | TGI (HT29 colon) | TGI (IGROV1 ovarian) | TGI (K-562 leukemia) | TGI (KM12 colon) | TGI (KM20L2 colon) | TGI (LOX IMVI melanoma) | TGI (LXFL 529 NSCLC) | TGI (M14 melanoma) | TGI (MALME-3M melanoma) | TGI (MOLT-4 leukemia) | TGI (NCI-H226 lung) | TGI (NCI-H23 lung) | TGI (NCI-H460 lung) | TGI (NCI-H522 lung) | TGI (OVCAR-3 ovarian) | TGI (OVCAR-4 ovarian) | TGI (OVCAR-5 ovarian) | TGI (OVCAR-8 ovarian) | TGI (RPMI-8226 leukemia) | TGI (RXF-631 renal) | TGI (SF-268 CNS) | TGI (SF-295 CNS) | TGI (SF-539 CNS) | TGI (SK-MEL-2 melanoma) | TGI (SK-MEL-28 melanoma) | TGI (SK-OV-3 ovarian) | TGI (SN12C renal) | TGI (SNB-19 CNS) | TGI (SNB-78 CNS) | TGI (SW-620 colon) | TGI (TK-10 renal) | TGI (U251 CNS) | TGI (UACC-257 melanoma) | TGI (UACC-62 melanoma) | TGI (UO-31 renal) | TGI (XF 498 CNS)

NC(N)=Nc1nc2ccccc2[nH]1
107 µg/mL: TGI (UO-31 renal)
> 150 µg/mL: TGI (A498 renal) | TGI (A549 NSCLC) | TGI (CAKI-1 renal) | TGI (COLO 205 colon) | TGI (DLD-1 colon) | TGI (DMS 273 small cell lung) | TGI (EKVX NSCLC) | TGI (HCC-2998 colon) | TGI (HCT-116 colon) | TGI (HCT-15 colon) | TGI (HOP-92 NSCLC) | TGI (HT29 colon) | TGI (IGROV1 ovarian) | TGI (K-562 leukemia) | TGI (KM12 colon) | TGI (LOX IMVI melanoma) | TGI (NCI-H226 lung) | TGI (NCI-H23 lung) | TGI (NCI-H460 lung) | TGI (NCI/ADR-RES ovarian) | TGI (OVCAR-3 ovarian) | TGI (OVCAR-5 ovarian) | TGI (OVCAR-8 ovarian) | TGI (RXF 393 renal) | TGI (SF-268 CNS) | TGI (SF-539 CNS) | TGI (SK-MEL-2 melanoma) | TGI (SK-MEL-28 melanoma) | TGI (SK-OV-3 ovarian) | TGI (SN12C renal) | TGI (SN12K1 renal) | TGI (SNB-19 CNS) | TGI (SNB-75 CNS) | TGI (SNB-78 CNS) | TGI (SW-620 colon) | TGI (U251 CNS) | TGI (UACC-257 melanoma) | TGI (UACC-62 melanoma)
68 µg/mL: TGI (DMS 114 small cell lung)
79.4 µg/mL: TGI (MCF7 breast)
47.4 µg/mL: TGI (MALME-3M melanoma)
124 µg/mL: TGI (HOP-62 NSCLC)
46.5 µg/mL: TGI (NCI-H522 lung)
111 µg/mL: TGI (CCRF-CEM leukemia) | TGI (SF-295 CNS)
99 µg/mL: TGI (SK-MEL-5 melanoma)
29.7 µg/mL: TGI (RPMI-8226 leukemia)
inactive: GI50 (A498 renal) 45.8 µg/mL (≈ 262 µM) | GI50 (A549 NSCLC) 61 µg/mL (≈ 348 µM) | GI50 (CAKI-1 renal) 48.8 µg/mL (≈ 279 µM) | GI50 (CCRF-CEM leukemia) 4.49 µg/mL (≈ 25.6 µM) | GI50 (COLO 205 colon) 61.7 µg/mL (≈ 352 µM) | GI50 (DLD-1 colon) 54.4 µg/mL (≈ 311 µM) | GI50 (DMS 114 small cell lung) 10.5 µg/mL (≈ 59.8 µM) | GI50 (DMS 273 small cell lung) 46.4 µg/mL (≈ 265 µM) | GI50 (EKVX NSCLC) 57.4 µg/mL (≈ 328 µM) | GI50 (HCC-2998 colon) 34.1 µg/mL (≈ 195 µM) | GI50 (HCT-116 colon) 49.3 µg/mL (≈ 282 µM) | GI50 (HCT-15 colon) 80.9 µg/mL (≈ 462 µM) | GI50 (HL-60(TB) leukemia) 3.87 µg/mL (≈ 22.1 µM) | outcome (HOP-18 NSCLC) | GI50 (HOP-62 NSCLC) 43.4 µg/mL (≈ 248 µM) | GI50 (HOP-92 NSCLC) 103 µg/mL (≈ 588 µM) | GI50 (HT29 colon) 51.3 µg/mL (≈ 293 µM) | GI50 (IGROV1 ovarian) 23.7 µg/mL (≈ 135 µM) | GI50 (K-562 leukemia) 27.6 µg/mL (≈ 157 µM) | GI50 (KM12 colon) 53.1 µg/mL (≈ 303 µM) | outcome (KM20L2 colon) | GI50 (LOX IMVI melanoma) 43.8 µg/mL (≈ 250 µM) | GI50 (M19-MEL melanoma) 20.3 µg/mL (≈ 116 µM) | GI50 (MALME-3M melanoma) 47.4 µg/mL (≈ 271 µM) | GI50 (MCF7 breast) 1.05 µg/mL (≈ 6.01 µM) | GI50 (MOLT-4 leukemia) 5.03 µg/mL (≈ 28.7 µM) | GI50 (NCI-H226 lung) 55.3 µg/mL (≈ 315 µM) | GI50 (NCI-H23 lung) 121 µg/mL (≈ 691 µM) | GI50 (NCI-H460 lung) 36.5 µg/mL (≈ 209 µM) | GI50 (NCI-H522 lung) 5.66 µg/mL (≈ 32.3 µM) | GI50 (NCI/ADR-RES ovarian) 6.44 µg/mL (≈ 36.8 µM) | GI50 (OVCAR-3 ovarian) 38.4 µg/mL (≈ 219 µM) | GI50 (OVCAR-4 ovarian) 22.1 µg/mL (≈ 126 µM) | GI50 (OVCAR-5 ovarian) 27.8 µg/mL (≈ 159 µM) | GI50 (OVCAR-8 ovarian) 76.5 µg/mL (≈ 437 µM) | GI50 (P388 leukemia) 4.46 µg/mL (≈ 25.4 µM) | GI50 (P388/ADR leukemia) 6.34 µg/mL (≈ 36.2 µM) | GI50 (RPMI-8226 leukemia) 2.98 µg/mL (≈ 17 µM) | GI50 (RXF 393 renal) 72.5 µg/mL (≈ 414 µM) | GI50 (SF-268 CNS) 128 µg/mL (≈ 732 µM) | GI50 (SF-295 CNS) 34.4 µg/mL (≈ 197 µM) | GI50 (SF-539 CNS) 33.7 µg/mL (≈ 192 µM) | GI50 (SK-MEL-2 melanoma) 95 µg/mL (≈ 542 µM) | GI50 (SK-MEL-28 melanoma) 135 µg/mL (≈ 769 µM) | GI50 (SK-MEL-5 melanoma) 31.1 µg/mL (≈ 178 µM) | GI50 (SK-OV-3 ovarian) 150 µg/mL (≈ 856 µM) | GI50 (SN12C renal) 72.9 µg/mL (≈ 416 µM) | GI50 (SN12K1 renal) 37.6 µg/mL (≈ 215 µM) | GI50 (SNB-19 CNS) 137 µg/mL (≈ 782 µM) | GI50 (SNB-75 CNS) 150 µg/mL (≈ 856 µM) | GI50 (SNB-78 CNS) 150 µg/mL (≈ 856 µM) | GI50 (SW-620 colon) 60.6 µg/mL (≈ 346 µM) | GI50 (U251 CNS) 55.3 µg/mL (≈ 316 µM) | GI50 (UACC-257 melanoma) 72.4 µg/mL (≈ 413 µM) | GI50 (UACC-62 melanoma) 36.2 µg/mL (≈ 207 µM) | GI50 (UO-31 renal) 20 µg/mL (≈ 114 µM) | outcome (XF 498 CNS)
55.5 µg/mL: TGI (OVCAR-4 ovarian)
20.5 µg/mL: TGI (P388 leukemia)
41.5 µg/mL: TGI (P388/ADR leukemia)
51 µg/mL: TGI (M19-MEL melanoma)
17.2 µg/mL: TGI (HL-60(TB) leukemia)
37.3 µg/mL: TGI (MOLT-4 leukemia)
